The values that follow come from patent US20230381270A1, “PHARMACEUTICAL COMBINATIONS FOR TREATING CANCER” (POLYPHOR AG, priority 2017, published 2023).

Read-outs that look alike come from different tables or passages of the source.

One data set relates to metastatic breast cancer. To be noted: cited from earlier work.
The target of the next data set is human CXCR4 receptor (Homo sapiens, UniProt P61073). Briefly: In vitro receptor binding studies. An excerpt:
(§1) Cyclo(-Tyr-His-Ala-Cys-Ser-Ala-^DPro-Dab-Arg-Tyr-Cys-Tyr-Gln-Lys-^DPro-Pro-) having a disulfide bond between Cys4 and Cys11 is also referred as POL6326 herein or balixafortide. POL6326 is a cyclic synthetic peptide consisting of 16 amino acids and an antagonist of the highly conserved chemokine receptor CXCR4 and is being developed as an IV treatment in combination with chemotherapy in patients with leukemias (autologous transplantation).

Data set [1] in a line: Phase I trial of eribulin + POL6326: safety and tolerability (adverse events). To be noted: balixafortide-related; most frequent during Day 1, Cycle 1. Type of data set: in vivo, human. The source says:
This open-label, single-arm, non-randomised Phase I, dose escalation trial enrolled HER2-negative (any oestrogen or progesterone receptor status) females age […] years with histologically confirmed invasive breast cancer, stage IV disease (American Joint Committee on Cancer criteria), evidence of tumour cell CXCR4 expression by immunohistochemistry on tumour tissue (archival primary tumour, metastatic tissue, or from a fresh biopsy), and at least one measurable lesion according to Response Evaluation Criteria in Solid Tumours (RECIST) 1.1 criteria. Patients had previously received […] chemotherapy regimens for metastatic breast cancer (MBC). Patients with hormone receptor positive status must have failed at least one endocrine therapy or be considered unsuitable for endocrine therapy. Eligibility criteria also included an Eastern Cooperative Oncology Group performance status of 0 or 1. This phase I study investigates the combination of eribulin with POL6326 in relapsed metastatic breast cancer. The primary objectives are the safety, tolerability, and pharmacokinetics (PK) of this combination therapy, as well as the maximum tolerated dose (MTD) and recommended phase 2 dose (RP2D) of POL6326 when added to eribulin. Efficacy, as measured by tumor response, was additionally assessed.
Treatment cycles of 21 days each. […]

Data set [2] has as its system other potential target receptors. The data set can be described thus: In vitro receptor binding studies, other receptors.
Text: as §1

A further data set concerns advanced cancer. To be noted: monotherapy (Galsky 2014); cited from earlier work.
The mark [3] stands for this setting: Phase II study, eribulin alone (Cortes et al 2010).
The mark [4] stands for this setting: Phase II study, eribulin alone (Vandat et al 2009).
Setting [5] is: relapsed mBC patients in 3rd line and beyond, published data.

Sequence of human CXCR4 receptor (P61073 whole entry): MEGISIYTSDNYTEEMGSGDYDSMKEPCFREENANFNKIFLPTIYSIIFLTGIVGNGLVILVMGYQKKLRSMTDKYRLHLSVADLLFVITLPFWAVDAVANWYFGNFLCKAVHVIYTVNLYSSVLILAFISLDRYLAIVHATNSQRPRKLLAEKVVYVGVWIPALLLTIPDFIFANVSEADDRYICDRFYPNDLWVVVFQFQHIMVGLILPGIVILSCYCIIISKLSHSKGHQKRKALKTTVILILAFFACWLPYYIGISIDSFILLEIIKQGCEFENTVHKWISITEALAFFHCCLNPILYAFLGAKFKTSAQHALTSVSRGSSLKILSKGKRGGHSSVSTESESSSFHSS

`C=C1C[C@@H]2CC[C@@]34C[C@H]5O[C@H]6[C@@H](O3)[C@H]3O[C@H](CC[C@@H]3O[C@H]6[C@H]5O4)CC(=O)C[C@@H]3[C@@H](OC)[C@@H](C[C@H](O)CN)O[C@H]3C[C@H]3O[C@@H](CC[C@@H]1O2)C[C@@H](C)C3=C` [eribulin, 2-(3-amino-2-hydroxypropyl)hexacosahydro-3-methoxy-26-methyl-20,27-bis(methylene)11,15-18,21-24,28-triepoxy-7,9-ethano-12,15-methano-9H,15H-furo (3,2-i)furo(2′,3′-5,6)pyrano (4,3-b)(1,4)dioxacyclopentacosin-5-(4H)-one]: the CBR with metastatic breast cancer (setting [3]) is on record as 17.1%; in the data set with metastatic breast cancer (setting [4]) it was 17.2%. The ORR is listed as 9% in the data set with metastatic breast cancer (setting [3]); 11.5% with metastatic breast cancer (setting [4]); 12% in the data set on metastatic breast cancer (randomised Phase III trial (EMBRACE, Cortes 2011)); 11% in the data set with metastatic breast cancer (randomised Phase III trial (Kaufman 2015)). Further, the mPFS in the data set with metastatic breast cancer (eribulin alone, published trials recruiting similar patients) is 2.6-4.1 months. In addition, the “One year OS” value with metastatic breast cancer (eribulin alone, reported) was 53.9%. In the data set with metastatic breast cancer (setting [5]), the “overall survival (OS)” value is 13.1 months. Moreover, the “progression-free survival (PFS)” value with metastatic breast cancer (setting [5]) is listed as 3.7 months.

As for “Cyclo(-Tyr-His-Ala-Cys-Ser-Ala-^DPro-Dab-Arg-Tyr-Cys-Tyr-Gln-Lys-^DPro-Pro-) having a disulfide bond between Cys4 and Cys11 [POL6326]”, the “affinity for the human CXCR4 receptor” value at human CXCR4 receptor is on record as “significant affinity”. Besides, in data set [1], the “infusion-related reactions (IRRs)” value is given as “the majority were low grade”. The “binding to other potential target receptors” value in data set [2] is listed as “general lack of significant binding”.

Regarding LY2510924, in the data set on advanced cancer, the DLT entry is reported as “abnormal neutrophil count”.
